According to PMC7317746 (Environmental and Molecular Mutagenesis, 2020):
Where two headings read alike, the source gives them in different places. Marks after values point to notes of the source that are not given here.

Experiments:
male Sprague Dawley rats [1] = experiment: Pig‐a assay; type: in vivo, rat
[2] = tested on: bacteria, in vitro mammalian cell and in vivo transgenic rat assays; conditions: ref IARC, 1990, Bergman et al., 1996; cited from earlier work
male Sprague Dawley rats [3] = conditions: 1-Month Study, 1,000 mg/kg/day
male Sprague Dawley rats [4] = experiment: Micronucleus assay in peripheral blood erythrocytes; type: in vivo, rat
peripheral blood cells = experiment: Comet assay, peripheral blood cells; type: in vivo, rat
liver cells = experiment: Comet assay, liver cells; type: in vivo, rat
[5] = 3-Day Study, 1,000 mg/kg/day Days 1-3, Day 30
[6] = 3-Day Study, 1,000 mg/kg/day Days 1-3, Day 45
[7] = 3-Day Study, 1,000 mg/kg/day, Day -4 (pre-treatment)
[8] = 3-Day Study, 2,000 mg/kg/day Days 1-3, Day 15
[9] = 3-Day Study, 2,000 mg/kg/day Days 1-3, Day 30
[10] = 3-Day Study, 2,000 mg/kg/day Days 1-3, Day 45
[11] = 3-Day Study, 2,000 mg/kg/day, Day -4 (pre-treatment)
[12] = 1-Month Study, 250 mg/kg/day, Day 4
[13] = 1-Month Study, 250 mg/kg/day, Day 29
[14] = 1-Month Study, 500 mg/kg/day, Day 4
[15] = 1-Month Study, 500 mg/kg/day, Day 29
[16] = 1-Month Study, 1,000 mg/kg/day, Day 29
[17] = 3-Day Study, 500 mg/kg/day, Day 4
[18] = ≤1,000 mg/kg/day, up to 29 days
[19] = 3-Day Study, 500 mg/kg/day, Day 3
[20] = 3-Day Study, 1,000 mg/kg/day, Day 3
[21] = 3-Day Study, 2,000 mg/kg/day, Day 3

Structure (SMILES): CC(=O)Nc1ccc(O)cc1 [acetaminophen, Acetaminophen]
- Number of CD59‐Neg RBCs per 10^6 RBCs mean ± SD (male Sprague Dawley rats [1]; [5]): 0.8 ± 0.4 per 10^6 RBCs
- Number of CD59‐Neg RETs per 10^6 RETs mean ± SD (male Sprague Dawley rats [1]; [5]): 1.5 ± 1.8 per 10^6 RETs
- %RETs mean ± SD (male Sprague Dawley rats [1]; [6]): 2.9 ± 0.3%
- Number of CD59‐Neg RBCs per 10^6 RBCs mean ± SD (male Sprague Dawley rats [1]; [6]): 1.1 ± 1.1 per 10^6 RBCs
- Number of CD59‐Neg RETs per 10^6 RETs mean ± SD (male Sprague Dawley rats [1]; [6]): 2.0 ± 2.1 per 10^6 RETs
- %RETs mean ± SD (male Sprague Dawley rats [1]; [7]): 3.6 ± 0.8%
- Number of CD59‐Neg RBCs per 10^6 RBCs mean ± SD (male Sprague Dawley rats [1]; [7]): 0.4 ± 0.2 per 10^6 RBCs
- Number of CD59‐Neg RETs per 10^6 RETs mean ± SD (male Sprague Dawley rats [1]; [7]): 1.2 ± 0.5 per 10^6 RETs
- %RETs mean ± SD (male Sprague Dawley rats [1]; [8]): 5.7 ± 0.4 %
- Number of CD59‐Neg RBCs per 10^6 RBCs mean ± SD (male Sprague Dawley rats [1]; [8]): 2.9 ± 6.1 per 10^6 RBCs
- Number of CD59‐Neg RETs per 10^6 RETs mean ± SD (male Sprague Dawley rats [1]; [8]): 11.3 ± 26.2 per 10^6 RETs
- %RETs mean ± SD (male Sprague Dawley rats [1]; [9]): 3.3 ± 0.6%
- Number of CD59‐Neg RBCs per 10^6 RBCs mean ± SD (male Sprague Dawley rats [1]; [9]): 32.4 ± 78.4 per 10^6 RBCs
- Number of CD59‐Neg RETs per 10^6 RETs mean ± SD (male Sprague Dawley rats [1]; [9]): 40.3 ± 98.3 per 10^6 RETs
- %RETs mean ± SD (male Sprague Dawley rats [1]; [10]): 2.4 ± 0.2 %
- Number of CD59‐Neg RBCs per 10^6 RBCs mean ± SD (male Sprague Dawley rats [1]; [10]): 38.5 ± 92.8 per 10^6 RBCs
- Number of CD59‐Neg RETs per 10^6 RETs mean ± SD (male Sprague Dawley rats [1]; [10]): 15.1 ± 36.2 per 10^6 RETs
- %RETs mean ± SD (male Sprague Dawley rats [1]; [11]): 3.2 ± 0.8%
- Number of CD59‐Neg RBCs per 10^6 RBCs mean ± SD (male Sprague Dawley rats [1]; [11]): 0.3 ± 0.1 per 10^6 RBCs
- Number of CD59‐Neg RETs per 10^6 RETs mean ± SD (male Sprague Dawley rats [1]; [11]): 1.2 ± 0.6 per 10^6 RETs
- Mutagenicity in the rat Pig‐a model (conclusion) (male Sprague Dawley rats [1]; 250-2,000 mg/kg/day, 3-Day, 2-Week and 1-Month Studies): not mutagenic
- Mutagenicity [2]: nonmutagenic
- Rats with minimal remnants of treatment‐related liver changes (male Sprague Dawley rats [3]; after 1-month recovery period): 2/6
- Rats with minimal to slight liver changes in the centrilobular region (male Sprague Dawley rats [3]; after 1 month): 9/16
- Rats with minimal to slight liver changes in the centrilobular region (male Sprague Dawley rats [3]; after 1 week): 5/5
- %MN‐RETs mean ± SD (male Sprague Dawley rats [4]; [12]): 0.14 ± 0.03%
- %RETs mean ± SD (male Sprague Dawley rats [4]; [12]): 2.89 ± 1.89%
- %MN‐RETs mean ± SD (male Sprague Dawley rats [4]; [13]): 0.15 ± 0.05%
- %RETs mean ± SD (male Sprague Dawley rats [4]; [13]): 1.32 ± 0.25%
- %MN‐RETs mean ± SD (male Sprague Dawley rats [4]; [14]): 0.18 ± 0.07%
- %RETs mean ± SD (male Sprague Dawley rats [4]; [14]): 1.80 ± 1.98%
- %MN‐RETs mean ± SD (male Sprague Dawley rats [4]; [15]): 0.22 ± 0.04^ %
- %RETs mean ± SD (male Sprague Dawley rats [4]; [15]): 1.03 ± 0.28%
- %RETs mean ± SD (male Sprague Dawley rats [4]; 1-Month Study, 1,000 mg/kg/day, Day 4): 0.03 ± 0.02 %
- %MN‐RETs mean ± SD (male Sprague Dawley rats [4]; [16]): 0.59 ± 0.23^ %
- %RETs mean ± SD (male Sprague Dawley rats [4]; [16]): 1.48 ± 1.05%
- %MN‐RETs mean ± SD (male Sprague Dawley rats [4]; [17]): 0.12 ± 0.05%
- %RETs mean ± SD (male Sprague Dawley rats [4]; [17]): 0.89 ± 0.68%
- %RETs mean ± SD (male Sprague Dawley rats [4]; 3-Day Study, 1,000 mg/kg/day, Day 4): 0.08 ± 0.08 %
- %MN‐RETs mean ± SD (male Sprague Dawley rats [4]; 3-Day Study, 1,000 mg/kg/day, Day 4, only 1 animal analyzed): 0.21 ^a %
- %RETs mean ± SD (male Sprague Dawley rats [4]; 3-Day Study, 2,000 mg/kg/day, Day 4): 0.03 ± 0.04 %
- Micronucleus endpoint in peripheral blood RETs (conclusion) (male Sprague Dawley rats [4]; [18]): negative
- Blood % tail intensity mean ± SD (peripheral blood cells; [13]): 0.13 ± 0.08%
- Blood % tail intensity mean ± SD (peripheral blood cells; [15]): 0.19 ± 0.10%
- Blood % tail intensity mean ± SD (peripheral blood cells; [16]): 0.24 ± 0.15%
- Blood % tail intensity mean ± SD (peripheral blood cells; [19]): 0.31 ± 0.11%
- Blood % tail intensity mean ± SD (peripheral blood cells; [20]): 0.41 ± 0.12 %
- Blood % tail intensity mean ± SD (peripheral blood cells; [21]): 0.34 ± 0.07%
- Increase in % tail intensity in peripheral blood cells versus vehicle (peripheral blood cells; 3-Day Study, at 1,000 mg/kg/day, not considered biologically relevant): up to 1.6 fold
- Liver % tail intensity mean ± SD (liver cells; [13]): 0.20 ± 0.11%
- Liver % tail intensity mean ± SD (liver cells; [15]): 0.18 ± 0.06%
- Liver % tail intensity mean ± SD (liver cells; [16]): 0.34 ± 0.25 %
- Liver % tail intensity mean ± SD (liver cells; [19]): 0.22 ± 0.09%
- Liver % tail intensity mean ± SD (liver cells; [20]): 0.27 ± 0.10%
- Liver % tail intensity mean ± SD (liver cells; [21]): 0.28 ± 0.07 %
- Comet endpoint in peripheral blood cells and liver cells (conclusion) (liver cells; [18]): negative
